Experimental data: PubChem BioAssay AID248 (DTP/NCI, 2004)
“And” between values parts separate entries of the source, which are not always exact repeats. Equal entries are not always repeated. Toxic doses and inconclusive results are not listed. Rule as the data show it: active = T/C of 150% or more; inactive = T/C below 125%.

System: L1210 leukemia ip in BDF1 mice, survival T/C
Assay: NCI In Vivo Anticancer Drug Screen. Data for tumor model L1210 Leukemia (intraperitoneal) in B6D2F1 (BDF1) mice
Details: endpoint: mean survival time, higher = longer survival
Outline: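 Transplanted-tumor mice were given test agent; controls received vehicle only. Survival readings from the two groups were divided (treated over control).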

[1] = dose: 100.0 mg/kg/injection, schedule: Q01DX001 (ip), vehicle: carboxymethylcellulose (CMC)
[2] = dose: 200.0 mg/kg/injection, schedule: Q01DX001 (ip), vehicle: carboxymethylcellulose (CMC)
[3] = dose: 400.0 mg/kg/injection, schedule: Q01DX001 (ip), vehicle: carboxymethylcellulose (CMC)
[4] = dose: 100.0 mg/kg/injection, schedule: Q04DX003 (ip), vehicle: Klucel (hydroxypropylcellulose) (HPC)
[5] = dose: 200.0 mg/kg/injection, schedule: Q04DX003 (ip), vehicle: Klucel (hydroxypropylcellulose) (HPC)
[6] = dose: 100.0 mg/kg/injection, schedule: Q04DX003 (ip), vehicle: saline with Tween-80
[7] = dose: 200.0 mg/kg/injection, schedule: Q04DX003 (ip), vehicle: saline with Tween-80
[8] = dose: 400.0 mg/kg/injection, schedule: Q04DX003 (ip), vehicle: saline with Tween-80
[9] = dose: 100.0 mg/kg/injection, schedule: Q04DX003 (ip), vehicle: saline
[10] = dose: 200.0 mg/kg/injection, schedule: Q04DX003 (ip), vehicle: saline
[11] = dose: 400.0 mg/kg/injection, schedule: Q04DX003 (ip), vehicle: saline
[12] = dose: 100.0 mg/kg/injection, schedule: Q01DX009 (ip), vehicle: saline
[13] = dose: 200.0 mg/kg/injection, schedule: Q01DX009 (ip), vehicle: saline
[14] = dose: 50.0 mg/kg/injection, schedule: Q01DX001 (ip), vehicle: saline
[15] = dose: 100.0 mg/kg/injection, schedule: Q01DX001 (ip), vehicle: saline
[16] = dose: 200.0 mg/kg/injection, schedule: Q01DX001 (ip), vehicle: saline
[17] = dose: 400.0 mg/kg/injection, schedule: Q01DX001 (ip), vehicle: saline

Measured: T/C

O=C=NCCCl
inactive: dose: 0.5 mg/kg/injection, schedule: Q01DX001 (ip), vehicle: propolene glycol 101 % of control | dose: 1.0 mg/kg/injection, schedule: Q01DX001 (ip), vehicle: propolene glycol 90 % of control | dose: 2.0 mg/kg/injection, schedule: Q01DX001 (ip), vehicle: propolene glycol 89 % of control | dose: 3.0 mg/kg/injection, schedule: Q01DX001 (ip), vehicle: propolene glycol 89 % of control | dose: 4.0 mg/kg/injection, schedule: Q01DX001 (ip), vehicle: propolene glycol 92 % of control | dose: 6.0 mg/kg/injection, schedule: Q01DX001 (ip), vehicle: propolene glycol 89 % of control | dose: 6.5 mg/kg/injection, schedule: Q01DX001 (ip), vehicle: olive oil, sesame oil, peanut oil 98 % of control | dose: 8.0 mg/kg/injection, schedule: Q01DX001 (ip), vehicle: propolene glycol 92 % of control | dose: 12.5 mg/kg/injection, schedule: Q01DX001 (ip), vehicle: propolene glycol 95 % of control | dose: 12.5 mg/kg/injection, schedule: Q01DX009 (sc), vehicle: olive oil, sesame oil, peanut oil 95 % of control | dose: 13.0 mg/kg/injection, schedule: Q01DX001 (ip), vehicle: olive oil, sesame oil, peanut oil 104 % of control | dose: 25.0 mg/kg/injection, schedule: Q01DX001 (ip), vehicle: propolene glycol 91 % of control | dose: 25.0 mg/kg/injection, schedule: Q01DX009 (sc), vehicle: olive oil, sesame oil, peanut oil 103 % of control | dose: 26.0 mg/kg/injection, schedule: Q01DX001 (ip), vehicle: olive oil, sesame oil, peanut oil 96 % of control | dose: 40.0 mg/kg/injection, schedule: Q01DX001 (ip), vehicle: olive oil, sesame oil, peanut oil 102 % of control | dose: 50.0 mg/kg/injection, schedule: Q01DX009 (sc), vehicle: olive oil, sesame oil, peanut oil 97 % of control | dose: 60.0 mg/kg/injection, schedule: Q01DX001 (ip), vehicle: olive oil, sesame oil, peanut oil 98 % of control | dose: 93.0 mg/kg/injection, schedule: Q01DX001 (ip), vehicle: olive oil, sesame oil, peanut oil 100 % of control | dose: 100.0 mg/kg/injection, schedule: Q04DX003 (sc), vehicle: olive oil, sesame oil, peanut oil 97 % of control | dose: 125.0 mg/kg/injection, schedule: Q01DX001 (ip), vehicle: olive oil, sesame oil, peanut oil 106 % of control | dose: 187.0 mg/kg/injection, schedule: Q01DX001 (ip), vehicle: olive oil, sesame oil, peanut oil 98 % of control | dose: 250.0 mg/kg/injection, schedule: Q01DX001 (ip), vehicle: olive oil, sesame oil, peanut oil 98 % of control | dose: 250.0 mg/kg/injection, schedule: Q01DX001 (ip), vehicle: propolene glycol 113 % of control | dose: 375.0 mg/kg/injection, schedule: Q01DX001 (ip), vehicle: olive oil, sesame oil, peanut oil 104 % of control | dose: 500.0 mg/kg/injection, schedule: Q01DX001 (ip), vehicle: olive oil, sesame oil, peanut oil 93 % of control

COc1cccc(-c2c(C(=O)OC(C)(C)C)cc(O)c3ccc(OC)cc23)c1
inactive: [1] 97 % of control | [2] 96 % of control | [3] 97 % of control

CCCCCCCCCCCCN1C(C)=CS/C1=C\C=C\c1scc(C)[n+]1CCCCCCCCCCCC
inactive: dose: 0.78 mg/kg/injection, schedule: Q01DX009 (ip), vehicle: saline with Tween-80 103 % of control | dose: 1.56 mg/kg/injection, schedule: Q01DX009 (ip), vehicle: saline with Tween-80 117 % of control | dose: 6.25 mg/kg/injection, schedule: Q01DX009 (ip), vehicle: saline with Tween-80 90 % of control

Oc1ccc(C(c2ccc(O)c(Br)c2)c2ccccn2)cc1Br
inactive: [4] 100 % of control | [5] 98 % of control | dose: 400.0 mg/kg/injection, schedule: Q04DX003 (ip), vehicle: Klucel (hydroxypropylcellulose) (HPC) 96 % of control

CC(C)(C)N1CC(C(=O)c2ccc3ccccc3c2)C1c1ccccc1 (stereo not drawn)
inactive: [6] 93 % of control | [7] 98 % of control | [8] 88 % of control

CC(C(=O)c1ccc(O)c(O)c1)N1CCCCC1 (stereo not drawn)
inactive: [1] 102 % of control | [2] 102 % of control | [3] 96 % of control

SCCS
inactive: dose: 50.0 mg/kg/injection, schedule: Q04DX002 (ip), vehicle: saline with Tween-80 101 % of control | dose: 100.0 mg/kg/injection, schedule: Q04DX002 (ip), vehicle: saline with Tween-80 101 % of control | dose: 200.0 mg/kg/injection, schedule: Q04DX002 (ip), vehicle: saline with Tween-80 86 % of control

C/C=C/c1cc2c(c(=O)o1)C(=O)[C@@H](O)[C@H](C)O2
inactive: [1] 92 % of control | [2] 103 % of control | [3] 94 % of control

OCC(O)C1OC(c2ccccc2)OC1C(O)CO (stereo not drawn)
inactive: [9] 105 % of control | [10] 92 % of control | [11] 99 % of control

CCOC(=O)C1C(=O)NCC1c1ccccc1 (stereo not drawn)
inactive: dose: 50.0 mg/kg/injection, schedule: Q01DX009 (ip), vehicle: saline 94 % of control and 97 % of control | [12] 104 % of control | [13] 108 % of control and 91 % of control

O=C1C(Cl)=C(c2ccccc2)C(=O)C(Cl)=C1c1ccccc1
inactive: dose: 100.0 mg/kg/injection, schedule: Q01DX001 (ip), vehicle: other 93 % of control | dose: 200.0 mg/kg/injection, schedule: Q01DX001 (ip), vehicle: other 88 % of control

C=CCc1ccc(OC(=O)Nc2cccc3ccccc23)c(OC)c1
inactive: dose: 100.0 mg/kg/injection, schedule: Q04DX002 (ip), vehicle: Klucel (hydroxypropylcellulose) (HPC) 96 % of control | dose: 200.0 mg/kg/injection, schedule: Q04DX002 (ip), vehicle: Klucel (hydroxypropylcellulose) (HPC) 124 % of control | dose: 400.0 mg/kg/injection, schedule: Q04DX002 (ip), vehicle: Klucel (hydroxypropylcellulose) (HPC) 93 % of control

CCN(CC)C(=S)SCc1ccccc1OC(=O)NC
inactive: dose: 75.0 mg/kg/injection, schedule: Q01DX001 (ip), vehicle: saline 101 % of control | dose: 150.0 mg/kg/injection, schedule: Q01DX001 (ip), vehicle: saline 98 % of control

O=C1NC(=O)C2(CCCCCCC2)N1
inactive: dose: 50.0 mg/kg/injection, schedule: Q01DX009 (ip), vehicle: Klucel (hydroxypropylcellulose) (HPC) 104 % of control | dose: 50.0 mg/kg/injection, schedule: Q04DX003 (ip), vehicle: Klucel (hydroxypropylcellulose) (HPC) 111 % of control | dose: 100.0 mg/kg/injection, schedule: Q01DX009 (ip), vehicle: Klucel (hydroxypropylcellulose) (HPC) 96 % of control | [4] 99 % of control | dose: 200.0 mg/kg/injection, schedule: Q01DX009 (ip), vehicle: Klucel (hydroxypropylcellulose) (HPC) 96 % of control | [5] 103 % of control

O=C(O)CNCc1ccccc1
inactive: [9] 102 % of control | [10] 96 % of control | [11] 96 % of control

CCCN(CCC)CCC#N
inactive: dose: 59.0 mg/kg/injection, schedule: Q01DX009 (ip), vehicle: saline with Tween-80 100 % of control | [6] 93 % of control | dose: 118.0 mg/kg/injection, schedule: Q01DX009 (ip), vehicle: saline with Tween-80 105 % of control | [7] 93 % of control

NC(N)=NCC1COc2ccccc2O1 (stereo not drawn)
inactive: dose: 25.0 mg/kg/injection, schedule: Q01DX001 (ip), vehicle: carboxymethylcellulose (CMC) 103 % of control | dose: 50.0 mg/kg/injection, schedule: Q01DX001 (ip), vehicle: carboxymethylcellulose (CMC) 106 % of control | [1] 108 % of control

Cc1ccc(S(=O)(=O)OC2CCCC3CC(=O)CCC32C)cc1 (stereo not drawn)
inactive: [14] 101 % of control | [1] 103 % of control | [15] 101 % of control | [2] 105 % of control | [16] 95 % of control | [3] 103 % of control | [17] 98 % of control

CCOC(=O)CNS(=O)(=O)c1ccccc1
inactive: [15] 98 % of control | [16] 101 % of control | [17] 101 % of control

OC(CC(O)(C(F)(F)F)C(F)(F)F)c1cccs1 (stereo not drawn)
inactive: [6] 106 % of control | [7] 100 % of control | [8] 101 % of control

Cc1cn(C2CC(O)C(CO)O2)c(=O)n(Cc2ccccc2)c1=O (stereo not drawn)
inactive: [14] 108 % of control | [15] 108 % of control | [16] 98 % of control | [17] 108 % of control

CC(=O)NCC1CCC(CNC(C)=O)CC1 (stereo not drawn)
inactive: [12] 103 % of control | [9] 100 % of control | [13] 107 % of control | [10] 105 % of control | dose: 400.0 mg/kg/injection, schedule: Q01DX009 (ip), vehicle: saline 95 % of control | [11] 100 % of control
